The supplement of paper PMC10627819

Legend:
Assay in all cases: fitness (endpoint OD595 vs no drug) (fraction); higher = more growth
S. aureus DSM 20231 = tested on: S. aureus DSM 20231
Procedure, shortened: (§1)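 Fitness is computed from the optical density at which cultures reach stationary phase, divided by the robust mean of no-drug control wells. Any value above 1 is set to 1. Cultures started at OD595 0.01 in 384-well plates with TSB, LB Lennox or CY at 37 °C, and OD595 was read every 30 min for 14 h against a first-reading background.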

S. aureus Newman = tested on: S. aureus Newman
Procedure, shortened: as §1

S. pneumoniae D39V = tested on: S. pneumoniae D39V
Procedure, shortened: as §1
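Also: OD595 on entry to stationary phase over no-drug wells; at most 1.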

CO[C@@]12[C@H](COC(N)=O)C3=C(C(=O)C(C)=C(N)C3=O)N1C[C@@H]1N[C@@H]12 [Mitomycin C] + Cc1onc(-c2ccccc2)c1C(=O)N[C@@H]1C(=O)N2[C@@H]1SC(C)(C)[C@@H]2C(=O)O [Oxacillin]
Settings | fitness
S. aureus DSM 20231, first compound 0.0156 µg/mL, partner 0.0156 µg/mL | 0.586
S. aureus DSM 20231, first compound 0.0156 µg/mL, partner 0.0312 µg/mL | 0.458
S. aureus DSM 20231, first compound 0.0156 µg/mL, partner 0.0625 µg/mL | 0.389
S. aureus DSM 20231, first compound 0.0312 µg/mL, partner 0.0156 µg/mL | 0.581
S. aureus DSM 20231, first compound 0.0312 µg/mL, partner 0.0312 µg/mL | 0.499
S. aureus DSM 20231, first compound 0.0312 µg/mL, partner 0.0625 µg/mL | 0.432
S. aureus DSM 20231, first compound 0.0625 µg/mL, partner 0.0156 µg/mL | 0.544
S. aureus DSM 20231, first compound 0.0625 µg/mL, partner 0.0312 µg/mL | 0.474
S. aureus DSM 20231, first compound 0.0625 µg/mL, partner 0.0625 µg/mL | 0.348
S. aureus Newman, first compound 0.0156 µg/mL, partner 0.0156 µg/mL | 0.672
S. aureus Newman, first compound 0.0156 µg/mL, partner 0.0312 µg/mL | 0.616
S. aureus Newman, first compound 0.0156 µg/mL, partner 0.0625 µg/mL | 0.485
S. aureus Newman, first compound 0.0312 µg/mL, partner 0.0156 µg/mL | 0.571
S. aureus Newman, first compound 0.0312 µg/mL, partner 0.0312 µg/mL | 0.534
S. aureus Newman, first compound 0.0312 µg/mL, partner 0.0625 µg/mL | 0.423
S. aureus Newman, first compound 0.0625 µg/mL, partner 0.0156 µg/mL | 0.421
S. aureus Newman, first compound 0.0625 µg/mL, partner 0.0312 µg/mL | 0.307
S. aureus Newman, first compound 0.0625 µg/mL, partner 0.0625 µg/mL | 0.111
S. pneumoniae D39V, first compound 0.001075 µg/mL, partner 0.01 µg/mL | 0.973
S. pneumoniae D39V, first compound 0.001075 µg/mL, partner 0.02 µg/mL | 0.957
S. pneumoniae D39V, first compound 0.002 µg/mL, partner 0.01 µg/mL | 0.838
S. pneumoniae D39V, first compound 0.002 µg/mL, partner 0.02 µg/mL | 0.764
S. pneumoniae D39V, first compound 0.002 µg/mL, partner 0.04 µg/mL | 0.219
S. pneumoniae D39V, first compound 0.00215 µg/mL, partner 0.01 µg/mL | 0.974
S. pneumoniae D39V, first compound 0.00215 µg/mL, partner 0.02 µg/mL | 0.968
S. pneumoniae D39V, first compound 0.00215 µg/mL, partner 0.04 µg/mL | 0.605
S. pneumoniae D39V, first compound 0.004 µg/mL, partner 0.01 µg/mL | 0.813
S. pneumoniae D39V, first compound 0.004 µg/mL, partner 0.02 µg/mL | 0.735
S. pneumoniae D39V, first compound 0.004 µg/mL, partner 0.04 µg/mL | 0.227
S. pneumoniae D39V, first compound 0.0043 µg/mL, partner 0.01 µg/mL | 0.891
S. pneumoniae D39V, first compound 0.0043 µg/mL, partner 0.02 µg/mL | 0.822
S. pneumoniae D39V, first compound 0.008 µg/mL, partner 0.01 µg/mL | 0.664
S. pneumoniae D39V, first compound 0.008 µg/mL, partner 0.02 µg/mL | 0.636
S. pneumoniae D39V, first compound 0.008 µg/mL, partner 0.04 µg/mL | 0.241
